Experimental findings from US10081624B2, “Heterocyclic compound” (Takeda Pharmaceutical Company Limited, priority 2014, dated 2018) are described below.

The assay addresses T1, HDAC6 enzyme (Homo sapiens, UniProt Q9UBN7).
T1 construct: prepared by transducing full length HDAC1 and HDAC6 genes into Sf-9 insect cells; GST; purchased SignalChem; host or cells: Sf-9 insect cells
T1 sequence (Q9UBN7 1-1215): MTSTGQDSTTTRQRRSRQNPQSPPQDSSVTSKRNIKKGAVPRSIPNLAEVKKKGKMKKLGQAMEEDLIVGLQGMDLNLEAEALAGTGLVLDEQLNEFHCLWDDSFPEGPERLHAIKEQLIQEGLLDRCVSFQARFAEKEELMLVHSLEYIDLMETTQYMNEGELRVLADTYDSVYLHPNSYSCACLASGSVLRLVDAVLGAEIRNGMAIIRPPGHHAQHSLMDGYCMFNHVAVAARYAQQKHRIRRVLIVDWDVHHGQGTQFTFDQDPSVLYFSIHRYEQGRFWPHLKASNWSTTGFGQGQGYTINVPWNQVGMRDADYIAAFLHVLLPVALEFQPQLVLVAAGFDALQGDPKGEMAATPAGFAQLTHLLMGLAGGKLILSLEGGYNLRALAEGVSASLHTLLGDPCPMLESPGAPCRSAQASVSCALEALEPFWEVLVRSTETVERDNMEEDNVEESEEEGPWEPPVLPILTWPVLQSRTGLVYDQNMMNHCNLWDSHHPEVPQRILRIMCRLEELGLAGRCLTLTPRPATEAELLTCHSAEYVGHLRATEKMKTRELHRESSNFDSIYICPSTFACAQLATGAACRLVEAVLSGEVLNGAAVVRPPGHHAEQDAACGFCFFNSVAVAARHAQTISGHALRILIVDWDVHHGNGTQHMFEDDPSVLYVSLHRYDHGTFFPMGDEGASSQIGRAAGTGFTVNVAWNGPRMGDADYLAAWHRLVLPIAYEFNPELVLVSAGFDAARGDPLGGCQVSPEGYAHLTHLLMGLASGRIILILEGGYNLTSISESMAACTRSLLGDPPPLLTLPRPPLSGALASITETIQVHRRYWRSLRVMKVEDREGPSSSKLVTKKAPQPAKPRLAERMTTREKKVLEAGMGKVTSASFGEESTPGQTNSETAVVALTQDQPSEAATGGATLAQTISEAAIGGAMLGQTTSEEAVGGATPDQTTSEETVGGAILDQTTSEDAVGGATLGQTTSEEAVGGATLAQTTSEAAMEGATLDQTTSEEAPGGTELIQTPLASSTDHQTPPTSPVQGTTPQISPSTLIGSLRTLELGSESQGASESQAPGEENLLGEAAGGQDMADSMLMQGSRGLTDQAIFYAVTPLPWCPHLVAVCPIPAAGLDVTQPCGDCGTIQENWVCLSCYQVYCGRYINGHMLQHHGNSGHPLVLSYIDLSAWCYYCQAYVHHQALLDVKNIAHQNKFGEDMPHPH
The assay is described as follows: HDAC6 enzyme inhibitory assay (HDAC-Glo I/II Assay kit). The note with it: 1 μM test compound; read-out: HDAC6 inhibitory rate (%) (1 μM). Type of assay: biochemical. In outline: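 Relative activity was calculated from luminescence, with wells lacking enzyme defined as 100% inhibition. The enzymes were full-length HDAC1 or HDAC6 from Sf-9 cells, preincubated with test compound for 60 min before a 20-min substrate-developer reaction at room temperature.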
In the case of `N#Cc1ccc(C(=O)N2CCOCC2CNC(=O)c2ccc(-c3noc(C(F)(F)F)n3)s2)cc1` (stereo not drawn) [Example 219, N-((4-(4-cyanobenzoyl)morpholin-3-yl)methyl)-5-(5-(trifluoromethyl)-1,2,4-oxadiazol-3-yl)thiophene-2-carboxamide], the inhibition at 1 µM stood at 90%.

On to `O=C(NCC1COCCN1C(=O)c1ccccc1N1CCOCC1)c1ccc(-c2noc(C(F)(F)F)n2)s1` (stereo not drawn) [Example 220, N-((4-(2-(morpholin-4-yl)benzoyl)morpholin-3-yl)methyl)-5-(5-(trifluoromethyl)-1,2,4-oxadiazol-3-yl)thiophene-2-carboxamide], for which the inhibition at 1 µM came out at 94%.

For `O=C(NCC1COCCN1C(=O)c1ccccc1-c1ccccc1)c1ccc(-c2noc(C(F)(F)F)n2)s1` (stereo not drawn) [Example 221, N-((4-(biphenyl-2-ylcarbonyl)morpholin-3-yl)methyl)-5-(5-(trifluoromethyl)-1,2,4-oxadiazol-3-yl)thiophene-2-carboxamide], the inhibition at 1 µM turned out to be 91%.

For `O=C(NCC1COCCN1C(=O)c1ccc(-c2ccccc2)cc1)c1ccc(-c2noc(C(F)(F)F)n2)s1` (stereo not drawn) [Example 223, N-((4-(biphenyl-4-ylcarbonyl)morpholin-3-yl)methyl)-5-(5-(trifluoromethyl)-1,2,4-oxadiazol-3-yl)thiophene-2-carboxamide], the inhibition at 1 µM amounted to 93%.

`O=C(NCC1COCCN1C(=O)c1ccccn1)c1ccc(-c2noc(C(F)(F)F)n2)s1` (stereo not drawn) [Example 224, N-((4-(pyridin-2-ylcarbonyl)morpholin-3-yl)methyl)-5-(5-(trifluoromethyl)-1,2,4-oxadiazol-3-yl)thiophene-2-carboxamide]: the inhibition at 1 µM was 92%.

As to `O=C(NCC1COCCN1C(=O)c1cccnc1)c1ccc(-c2noc(C(F)(F)F)n2)s1` (stereo not drawn) [Example 225, N-((4-(pyridin-3-ylcarbonyl)morpholin-3-yl)methyl)-5-(5-(trifluoromethyl)-1,2,4-oxadiazol-3-yl)thiophene-2-carboxamide], the inhibition at 1 µM turned out to be 92%.

For `O=C(NCC1COCCN1C(=O)c1ccncc1)c1ccc(-c2noc(C(F)(F)F)n2)s1` (stereo not drawn) [Example 226, N-((4-isonicotinoylmorpholin-3-yl)methyl)-5-(5-(trifluoromethyl)-1,2,4-oxadiazol-3-yl)thiophene-2-carboxamide], the inhibition at 1 µM came to 95%.

For `Cc1cc(C(=O)N2CCOCC2CNC(=O)c2ccc(-c3noc(C(F)(F)F)n3)s2)ccn1` (stereo not drawn) [Example 227, N-((4-(2-methylisonicotinoyl)morpholin-3-yl)methyl)-5-(5-(trifluoromethyl)-1,2,4-oxadiazol-3-yl)thiophene-2-carboxamide], the inhibition at 1 µM was found to be 91%.

Consider `Cn1ccnc1C(=O)N1CCOCC1CNC(=O)c1ccc(-c2noc(C(F)(F)F)n2)s1` (stereo not drawn) [Example 228, N-((4-((1-methyl-1H-imidazol-2-yl)carbonyl)morpholin-3-yl)methyl)-5-(5-(trifluoromethyl)-1,2,4-oxadiazol-3-yl)thiophene-2-carboxamide], for which the inhibition at 1 µM is 77%.

As to `Cn1nccc1C(=O)N1CCOCC1CNC(=O)c1ccc(-c2noc(C(F)(F)F)n2)s1` (stereo not drawn) [Example 229, N-((4-((1-methyl-1H-pyrazol-5-yl)carbonyl)morpholin-3-yl)methyl)-5-(5-(trifluoromethyl)-1,2,4-oxadiazol-3-yl)thiophene-2-carboxamide], the inhibition at 1 µM came to 97%.

`Cc1cc(C(=O)N2CCOCC2CNC(=O)c2ccc(-c3noc(C(F)(F)F)n3)s2)n(C)n1` (stereo not drawn) [Example 230, N-((4-((1,3-dimethyl-1H-pyrazol-5-yl)carbonyl)morpholin-3-yl)methyl)-5-(5-(trifluoromethyl)-1,2,4-oxadiazol-3-yl)thiophene-2-carboxamide]: the inhibition at 1 µM was 88%.

With `Cn1nc(C(F)(F)F)cc1C(=O)N1CCOCC1CNC(=O)c1ccc(-c2noc(C(F)(F)F)n2)s1` (stereo not drawn) [Example 231, N-((4-((1-methyl-3-(trifluoromethyl)-1H-pyrazol-5-yl)carbonyl)morpholin-3-yl)methyl)-5-(5-(trifluoromethyl)-1,2,4-oxadiazol-3-yl)thiophene-2-carboxamide], the inhibition at 1 µM was 92%.

For `Cn1cc(C(=O)N2CCOCC2CNC(=O)c2ccc(-c3noc(C(F)(F)F)n3)s2)cn1` (stereo not drawn) [Example 233, N-((4-((1-methyl-1H-pyrazol-4-yl)carbonyl)morpholin-3-yl)methyl)-5-(5-(trifluoromethyl)-1,2,4-oxadiazol-3-yl)thiophene-2-carboxamide], the inhibition at 1 µM came out at 78%.

As to `Cn1cnc(C(=O)N2CCOCC2CNC(=O)c2ccc(-c3noc(C(F)(F)F)n3)s2)c1` (stereo not drawn) [Example 234, N-((4-((1-methyl-1H-imidazol-4-yl)carbonyl)morpholin-3-yl)methyl)-5-(5-(trifluoromethyl)-1,2,4-oxadiazol-3-yl)thiophene-2-carboxamide], the inhibition at 1 µM stood at 38%.

Take `Cc1ncsc1C(=O)N1CCOCC1CNC(=O)c1ccc(-c2noc(C(F)(F)F)n2)s1` (stereo not drawn) [Example 238, N-((4-((4-methyl-1,3-thiazol-5-yl)carbonyl)morpholin-3-yl)methyl)-5-(5-(trifluoromethyl)-1,2,4-oxadiazol-3-yl)thiophene-2-carboxamide]: the inhibition at 1 µM amounted to 98%.

In the case of `O=C(NCC1COCCN1C(=O)c1ccno1)c1ccc(-c2noc(C(F)(F)F)n2)s1` (stereo not drawn) [Example 239, N-((4-(1,2-oxazol-5-ylcarbonyl)morpholin-3-yl)methyl)-5-(5-(trifluoromethyl)-1,2,4-oxadiazol-3-yl)thiophene-2-carboxamide], the inhibition at 1 µM stood at 97%.

Consider `Cc1cc(C(=O)N2CCOCC2CNC(=O)c2ccc(-c3noc(C(F)(F)F)n3)s2)on1` (stereo not drawn) [Example 240, N-((4-((3-methyl-1,2-oxazol-5-yl)carbonyl)morpholin-3-yl)methyl)-5-(5-(trifluoromethyl)-1,2,4-oxadiazol-3-yl)thiophene-2-carboxamide], for which the inhibition at 1 µM was determined as 89%.

With `O=C(NCC1COCCN1C(=O)c1cccs1)c1ccc(-c2noc(C(F)(F)F)n2)s1` (stereo not drawn) [Example 241, N-((4-(2-thienylcarbonyl)morpholin-3-yl)methyl)-5-(5-(trifluoromethyl)-1,2,4-oxadiazol-3-yl)thiophene-2-carboxamide], the inhibition at 1 µM came to 94%.

For `Cc1ccc(C(=O)N2CCOCC2CNC(=O)c2ccc(-c3noc(C(F)(F)F)n3)s2)s1` (stereo not drawn) [Example 242, N-((4-((5-methyl-2-thienyl)carbonyl)morpholin-3-yl)methyl)-5-(5-(trifluoromethyl)-1,2,4-oxadiazol-3-yl)thiophene-2-carboxamide], the inhibition at 1 µM turned out to be 89%.

Regarding `Cc1csc(C(=O)N2CCOCC2CNC(=O)c2ccc(-c3noc(C(F)(F)F)n3)s2)c1` (stereo not drawn) [Example 243, N-((4-((4-methyl-2-thienyl)carbonyl)morpholin-3-yl)methyl)-5-(5-(trifluoromethyl)-1,2,4-oxadiazol-3-yl)thiophene-2-carboxamide], the inhibition at 1 µM came to 93%.

Regarding `Cc1ccsc1C(=O)N1CCOCC1CNC(=O)c1ccc(-c2noc(C(F)(F)F)n2)s1` (stereo not drawn) [Example 244, N-((4-((3-methyl-2-thienyl)carbonyl)morpholin-3-yl)methyl)-5-(5-(trifluoromethyl)-1,2,4-oxadiazol-3-yl)thiophene-2-carboxamide], the inhibition at 1 µM turned out to be 96%.
